Test results taken from PMC4536891, “Insertion of a xylanase in xylose binding protein results in a xylose-stimulated xylanase” (Biotechnology for Biofuels, 2015).

Experiments:
[1] = molecular target: T1, 2621B (XynA inserted in XBP at position 262); assay: intrinsic tryptophan fluorescence titration; type: binding, Escherichia coli; conditions: 20 mM Hepes pH 7.5, 25 °C; 3 µM protein; XBP domain site, allosteric activator of xylanase
T1 construct: gene xylF; single polypeptide: XBP to Q262, linker GGGG, XynA (1-185), linker GA, XBP from residue 263; pET28a, E. coli Rosetta (DE3), Ni-NTA (His tag not described); with Endo-1,4-beta-xylanase A

[2] = molecular target: T2, parental XynA (Bacillus subtilis, UniProt P18429); assay: RBB-xylan hydrolysis by culture supernatant, dye release at […] nm; type: biochemical; conditions: 1% (m/v) D-xylose; acetate pH 5.5, 37 °C; product inhibition
T2 construct: GH11 xylanase, mature 185 residues; activity ratio measured in culture supernatants

[3] = molecular target: T3, parental XBP (xylose binding protein, XylF) (Escherichia coli, UniProt P37387); assay: intrinsic tryptophan fluorescence titration; conditions: 20 mM Hepes pH 7.5, 25 °C; 3 µM protein
T3 construct: full XBP expressed in E. coli Rosetta (DE3) and purified; vector, tag and signal peptide of the purified parental XBP not described
T3 sequence (P37387 24-330): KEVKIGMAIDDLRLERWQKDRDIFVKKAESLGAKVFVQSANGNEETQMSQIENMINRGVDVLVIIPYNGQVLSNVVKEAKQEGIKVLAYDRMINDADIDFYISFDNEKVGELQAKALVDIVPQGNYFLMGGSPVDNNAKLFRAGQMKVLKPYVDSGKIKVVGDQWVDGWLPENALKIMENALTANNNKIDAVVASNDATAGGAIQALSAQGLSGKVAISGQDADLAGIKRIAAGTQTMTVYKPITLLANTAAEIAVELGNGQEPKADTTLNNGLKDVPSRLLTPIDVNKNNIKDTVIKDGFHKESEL

[4] = molecular target: T4, 2091A (XynA inserted in XBP at position 209); assay: intrinsic tryptophan fluorescence titration; type: binding, Escherichia coli; conditions: 20 mM Hepes pH 7.5, 25 °C; 3 µM protein; XBP domain site, allosteric activator of xylanase
T4 construct: gene xylF; single polypeptide: XBP to A209, linker AG, XynA (1-185), linker GGA, XBP from residue 210; pET28a, E. coli Rosetta (DE3), Ni-NTA (His tag not described); with Endo-1,4-beta-xylanase A

SMILES: OC1OC[C@@H](O)[C@H](O)[C@H]1O (stereo partly drawn) [D-xylose]
- Kd [1]: 160 ± 10 nM
- +xyl/-xyl ratio^a [2]: 0.80 ± 0.04
- Kd [3]: 140 ± 30 nM
- Kd [4]: 150 ± 20 nM
